Patent US20060199832A1, “Use of non-immunosupressive pipecolic acid derivatives for inducing chondrogenic differentiation” (Astellas Pharma Inc., priority 2003, published 2006)

Test system: ATDC5 cells
Test: Induction of chondrogenic differentiation of ATDC5 cells (Alcian blue staining of proteoglycan)
Type: cell-based
Details: ATDC5 cells incubated for 24 days; compound (1) at 1-10000 ng/ml; results in FIG. 1
Description: The inducing activity by the compound (1) on chondrogenic differentiation was evaluated in accordance with the below-mentioned method.
(1) The ATDC5 cell line provided by RIKEN Cell Bank (Tsukuba, Japan) was grown in a 1:1 mixture of Dulbecco's modified Eagle's medium and Ham's F12 medium (Nikken Biomedical Laboratory, Kyoto, Japan) supplemented with 10% heat-inactivated fetal bovine serum (Intergen, Purchase, N.Y.).
(2) The above ATDC5 cells were plated in 12-multiwell plastic plate at a density of 1×10^5 cells/well in the medium. After 4 hr, the medium was replaced with fresh medium containing the compound (1) or Cyclosporin A (CsA), and the culture was continued for a 24 days with medium change every 2 or 3 days. Cells were fixed with methanol and stained 0.1% Alcian blue (Sigma Chemical Co., St. Louis, Mo.) dissolved in 0.1 M hydrochloric acid for 16 hr at room temperature. Cells were then rinsed three times with distilled water, and the amount of cell-associated dye was measured at 620 nm after extraction with 6 M guanidine-HCl (300 μl/well)
ATDC5 cells were incubated with the compound (1) or CsA for 24 days and the amount of proteoglycan was assayed.

Compound	chondrogenic differentiation (amount of proteoglycan, cell-associated Alcian blue dye measured at 620 nm)
COC1CC(/C=C(\C)C2OC(=O)C3CCCCN3C(=O)C(=O)C3(O)OC(C(OC)CC(C)C/C(C)=C/C(CC(C)=O)C(=O)CC(O)C2C)C(OC)CC3C)CCC1O (centres unmarked) [compound (1)]	induced differentiation into chondrocyte in a concentration-dependent manner
Cyclosporin A [CsA]	did not induce the differentiation
